target: human PDE4D catalytic domain (UniProt no. Q08499) (Homo sapiens (Human), UniProt Q08499); assay: PDE4 assay (TR-FRET, FAM-cAMP cleavage); type: biochemical; settings: human PDE4D catalytic domain; molar concentration giving 50% inhibition of substrate cleavage; read-out: PDE4 IC50 range
Procedure, shortened: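 Read-out is time-resolved FRET from Tb donor to FAM-AMP captured on trivalent-metal nanoparticles added to stop the reaction. Substrate was a mix of plain and FAM-labelled cAMP, cleaved by human PDE4D catalytic domain ([…]) with titrated compound; IC50 ranges (nM) versus controls.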

human PDE4D catalytic domain, sequence (Q08499 380-740 limits assumed): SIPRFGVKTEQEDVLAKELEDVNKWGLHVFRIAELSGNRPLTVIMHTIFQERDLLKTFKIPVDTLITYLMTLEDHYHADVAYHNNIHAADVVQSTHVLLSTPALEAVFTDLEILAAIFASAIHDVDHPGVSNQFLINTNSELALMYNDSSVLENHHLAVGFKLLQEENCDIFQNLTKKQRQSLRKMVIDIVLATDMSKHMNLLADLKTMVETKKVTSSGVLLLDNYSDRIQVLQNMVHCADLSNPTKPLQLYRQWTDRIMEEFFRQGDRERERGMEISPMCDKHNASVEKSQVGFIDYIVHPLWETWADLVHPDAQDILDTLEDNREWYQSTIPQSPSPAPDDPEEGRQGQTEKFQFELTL

Row | Compound | IC50
1 | CCc1nn(C[C@@H](C)COC(=O)c2ccc(S(=O)(=O)N(C)C)cc2)c2c1C(=O)NCC1(CCOCC1)C2 [Example 4, [(2R)-3-(3-Ethyl-4-oxo-spiro[6,8-dihydro-5H-pyrazolo[4,3-c]azepine-7,4′-tetrahydro-pyran]-1-yl)-2-methyl-propyl] 4-(dimethylsulfamoyl)benzoate] | < 100 nM
2 | CCc1nn(CCCOC(=O)c2ccc(F)cc2Cl)c2c1C(=O)NCC1(CCOCC1)C2 [Example 77, 3-(3-ethyl-4-oxo-spiro[6,8-dihydro-5H-pyrazolo[4,3-c]azepine-7,4′-tetrahydropyran]-1-yl)propyl 2-chloro-4-fluoro-benzoate] | < 100 nM
3 | CCc1nn(C[C@@H](C)COC(=O)c2ccccc2S(C)(=O)=O)c2c1C(=O)NCC1(CCOCC1)C2 [Example 214, [(2R)-3-(3-ethyl-4-oxo-spiro[6,8-dihydro-5H-pyrazolo[4,3-c]azepine-7,4′-tetrahydropyran]-1-yl)-2-methyl-propyl] 2-methylsulfonylbenzoate] | < 100 nM
4 | CCc1nn(CCCOC(=O)c2cccc(OC)c2F)c2c1C(=O)NCC1(CCOCC1)C2 [Example 66, 3-(3-ethyl-4-oxo-spiro[6,8-dihydro-5H-pyrazolo[4,3-c]azepine-7,4′-tetrahydropyran]-1-yl)propyl 2-fluoro-3-methoxy-benzoate] | < 100 nM
5 | CCc1nn(CCCOC(=O)c2ccc(C)c(OC)c2)c2c1C(=O)NCC1(CCOCC1)C2 [Example 59, 3-(3-ethyl-4-oxo-spiro[6,8-dihydro-5H-pyrazolo[4,3-c]azepine-7,4′-tetrahydropyran]-1-yl)propyl 3-methoxy-4-methyl-benzoate] | < 100 nM
6 | CCc1nn(C[C@@H](C)COC(=O)c2cccc(S(=O)(=O)NC)c2)c2c1C(=O)NCC1(CCOCC1)C2 [Example 228, [(2R)-3-(3-ethyl-4-oxo-spiro[6,8-dihydro-5H-pyrazolo[4,3-c]azepine-7,4′-tetrahydropyran]-1-yl)-2-methyl-propyl] 3-(methylsulfamoyl)benzoate] | < 100 nM
7 | CCc1nn(CCCOC(=O)c2ccc(F)cc2)c2c1C(=O)NCC1(CCOCC1)C2 [Example 20, 3-(3-ethyl-4-oxo-spiro[6,8-dihydro-5H-pyrazolo[4,3-c]azepine-7,4′-tetrahydropyran]-1-yl)propyl 4-fluorobenzoate] | < 100 nM
8 | CCc1nn(C[C@@H](C)COC(=O)c2cccc(F)c2)c2c1C(=O)NCC1(CCOCC1)C2 [Example 165, [(2R)-3-(3-ethyl-4-oxo-spiro[6,8-dihydro-5H-pyrazolo[4,3-c]azepine-7,4′-tetrahydropyran]-1-yl)-2-methyl-propyl] 3-fluorobenzoate] | < 100 nM
9 | CCc1nn(CCCOC(=O)c2ccc(Cl)cc2)c2c1C(=O)NCC1(CCOCC1)C2 [Example 42, 3-(3-ethyl-4-oxo-spiro[6,8-dihydro-5H-pyrazolo[4,3-c]azepine-7,4′-tetrahydropyran]-1-yl)propyl 4-chlorobenzoate] | < 100 nM
10 | CCc1nn(CCCOC(=O)c2cc(F)cc(OC)c2)c2c1C(=O)NCC1(CCOCC1)C2 [Example 63, 3-(3-ethyl-4-oxo-spiro[6,8-dihydro-5H-pyrazolo[4,3-c]azepine-7,4′-tetrahydropyran]-1-yl)propyl 3-fluoro-5-methoxy-benzoate] | < 100 nM
11 | CCc1nn(C[C@@H](C)COC(=O)c2cccc(C#N)c2)c2c1C(=O)NCC1(CCOCC1)C2 [Example 167, [(2R)-3-(3-ethyl-4-oxo-spiro[6,8-dihydro-5H-pyrazolo[4,3-c]azepine-7,4′-tetrahydropyran]-1-yl)-2-methyl-propyl] 3-cyanobenzoate] | < 100 nM
12 | CCc1nn(C[C@@H](C)COC(=O)c2ccc(S(=O)(=O)N3CCN(C(C)=O)CC3)cc2)c2c1C(=O)NCC1(CCOCC1)C2 [Example 250, [(2R)-3-(3-ethyl-4-oxo-spiro[6,8-dihydro-5H-pyrazolo[4,3-c]azepine-7,4′-tetrahydropyran]-1-yl)-2-methyl-propyl] 4-(4-acetylpiperazin-1-yl)sulfonylbenzoate] | < 100 nM
13 | CCc1nn(CCCOC(=O)c2ccccc2C)c2c1C(=O)NCC1(CCOCC1)C2 [Example 16, 3-(3-ethyl-4-oxo-spiro[6,8-dihydro-5H-pyrazolo[4,3-c]azepine-7,4′-tetrahydropyran]-1-yl)propyl 2-methylbenzoate] | < 100 nM
14 | CCc1nn(CCCOC(=O)c2cccc(C(=O)N(C)C)c2)c2c1C(=O)NCC1(CCOCC1)C2 [Example 153, 3-(3-ethyl-4-oxo-spiro[6,8-dihydro-5H-pyrazolo[4,3-c]azepine-7,4′-tetrahydropyran]-1-yl)propyl 3-(dimethylcarbamoyl)-benzoate] | < 100 nM
15 | CCc1nn(C[C@@H](C)COC(=O)c2ccc(OC)c(Cl)c2)c2c1C(=O)NCC1(CCOCC1)C2 [Example 206, [(2R)-3-(3-ethyl-4-oxo-spiro[6,8-dihydro-5H-pyrazolo[4,3-c]azepine-7,4′-tetrahydropyran]-1-yl)-2-methyl-propyl] 3-chloro-4-methoxy-benzoate] | < 100 nM
16 | CCc1nn(C[C@@H](C)COC(=O)c2ccc(F)cc2OC)c2c1C(=O)NCC1(CCOCC1)C2 [Example 195, [(2R)-3-(3-ethyl-4-oxo-spiro[6,8-dihydro-5H-pyrazolo[4,3-c]azepine-7,4′-tetrahydropyran]-1-yl)-2-methyl-propyl] 4-fluoro-2-methoxy-benzoate] | < 100 nM
17 | CCc1nn(CCCOC(=O)c2ccc(Cl)cc2C(F)(F)F)c2c1C(=O)NCC1(CCOCC1)C2 [Example 121, 3-(3-ethyl-4-oxo-spiro[6,8-dihydro-5H-pyrazolo[4,3-c]azepine-7,4′-tetrahydropyran]-1-yl)propyl 4-chloro-2-(trifluoromethyl)benzoate] | < 100 nM
18 | CCc1nn(CCCOC(=O)c2cccc(Cl)c2C)c2c1C(=O)NCC1(CCOCC1)C2 [Example 74, 3-(3-ethyl-4-oxo-spiro[6,8-dihydro-5H-pyrazolo[4,3-c]azepine-7,4′-tetrahydropyran]-1-yl)propyl 3-chloro-2-methyl-benzoate] | < 100 nM

same assay, conditions: read-out: PDE4 IC50 range

Row | Compound | IC50
19 | CCc1nn(CC(C)(C)COC(=O)c2ccc(C(C)=O)cc2)c2c1C(=O)NCC1(CCOCC1)C2 [Example 295, [3-(3-ethyl-4-oxo-spiro[6,8-dihydro-5H-pyrazolo[4,3-c]azepine-7,4′-tetrahydropyran]-1-yl)-2,2-dimethyl-propyl] 4-acetylbenzoate] | < 100 nM
20 | CCc1nn(CC(C)(C)COC(=O)c2cccc(OC)c2)c2c1C(=O)NCC1(CCOCC1)C2 [Example 289, [3-(3-ethyl-4-oxo-spiro[6,8-dihydro-5H-pyrazolo[4,3-c]azepine-7,4′-tetrahydropyran]-1-yl)-2,2-dimethyl-propyl] 3-methoxybenzoate] | < 100 nM
21 | CCc1nn(CC(C)(C)COC(=O)c2ccc(S(=O)(=O)CC)cc2)c2c1C(=O)NCC1(CCOCC1)C2 [Example 312, [3-(3-ethyl-4-oxo-spiro[6,8-dihydro-5H-pyrazolo[4,3-c]azepine-7,4′-tetrahydropyran]-1-yl)-2,2-dimethyl-propyl] 4-ethylsulfonylbenzoate] | < 100 nM
22 | CCc1nn(CC(C)(C)COC(=O)c2ccc(C#N)cc2F)c2c1C(=O)NCC1(CCOCC1)C2 [Example 298, [3-(3-ethyl-4-oxo-spiro[6,8-dihydro-5H-pyrazolo[4,3-c]azepine-7,4′-tetrahydropyran]-1-yl)-2,2-dimethyl-propyl] 4-cyano-2-fluoro-benzoate] | < 100 nM
23 | CCc1nn(CC(C)(C)COC(=O)c2c(F)cccc2Cl)c2c1C(=O)NCC1(CCOCC1)C2 [Example 300, [3-(3-ethyl-4-oxo-spiro[6,8-dihydro-5H-pyrazolo[4,3-c]azepine-7,4′-tetrahydropyran]-1-yl)-2,2-dimethyl-propyl] 2-chloro-6-fluoro-benzoate] | < 100 nM
24 | CCc1nn(CC2(COC(=O)c3ccc(C)cc3)CC2)c2c1C(=O)NCC1(CCOCC1)C2 [Example 351, [1-[(3-ethyl-4-oxo-spiro[6,8-dihydro-5H-pyrazolo[4,3-c]azepine-7,4′-tetrahydropyran]-1-yl)methyl]cyclopropyl]methyl 4-methylbenzoate] | < 100 nM
25 | CCNC(=O)c1ccc(C(=O)OCC(C)(C)Cn2nc(CC)c3c2CC2(CCOCC2)CNC3=O)cc1 [Example 330, [3-(3-ethyl-4-oxo-Spiro[6,8-dihydro-5H-pyrazolo[4,3-c]azepine-7,4′-tetrahydropyran]-1-yl)-2,2-dimethyl-propyl] 4-(ethylcarbamoyl)benzoate] | < 100 nM
26 | CCc1nn(C[C@@H](C)COC(=O)c2cccc(C(=O)N3CCN(C)CC3)c2)c2c1C(=O)NCC1(CCOCC1)C2 [Example 272, [(2R)-3-(3-ethyl-4-oxo-spiro[6,8-dihydro-5H-pyrazolo[4,3-c]azepine-7,4′-tetrahydropyran]-1-yl)-2-methyl-propyl] 3-(4-methylpiperazine-1-carbonyl)benzoate] | < 100 nM
27 | CCc1nn(CC(C)(C)COC(=O)c2cccc(F)c2)c2c1C(=O)NCC1(CCOCC1)C2 [Example 284, [3-(3-ethyl-4-oxo-spiro[6,8-dihydro-5H-pyrazolo[4,3-c]azepine-7,4′-tetrahydropyran]-1-yl)-2,2-dimethyl-propyl] 3-fluorobenzoate] | < 100 nM
28 | CCc1nn(C[C@@H](C)COC(=O)c2cccc(C(=O)NC)c2)c2c1C(=O)NCC1(CCOCC1)C2 [Example 264, [(2R)-3-(3-ethyl-4-oxo-spiro[6,8-dihydro-5H-pyrazolo[4,3-c]azepine-7,4′-tetrahydropyran]-1-yl)-2-methyl-propyl] 3-(methylcarbamoyl)benzoate] | < 100 nM
29 | CCc1nn(CC(C)(C)COC(=O)c2cccc(S(N)(=O)=O)c2)c2c1C(=O)NCC1(CCOCC1)C2 [Example 308, [3-(3-ethyl-4-oxo-spiro[6,8-dihydro-5H-pyrazolo[4,3-c]azepine-7,4′-tetrahydropyran]-1-yl)-2,2-dimethyl-propyl] 3-sulfamoylbenzoate] | < 100 nM

Source: patent US10906915B2, “Substituted pyrazoloazepin-4-ones and their use as phosphodiesterase inhibitors” (LEO Pharma A/S, priority 2016, dated 2021)
